Consider 17 molecules from article PMC9574862, “Designing Soluble PROTACs: Strategies and Preliminary Guidelines” (Journal of Medicinal Chemistry, 2022).

This series in a line: Thermodynamic solubility, shake-flask, 10 mM PBS (0.15 M KCl) pH 7, 25 °C, 1 h, HPLC-UV. As to conditions: for solubility at 1 h / Classification (GSK guidelines) / Solubility (in words): pH 7, 25 °C; for Classification (GSK guidelines): solubility class. Here is the method: Its measurement only requires an initial DMSO stock solution which is precipitated by the addition of an aqueous phase.[23],[24] Here, we measured thermodynamic solubility, often determined in late lead optimization, which efficiently considers the solubility value when the equilibrium with the stable phase or polymorph has been reached.
Solubility was determined in 10 mM PBS (0.15 M KCl) at pH 7, 25 °C. A 1–2 mg sample of each molecule was added to the same quantity (1–2 mL) of the mentioned buffer to obtain 1 mg/mL solutions in the vial. Samples were then submitted to 25 °C and magnetic stirring (500 rpm) for 1 h. After this period, solutions or suspensions were filtered through the 0.45 μm membrane pore and diluted with buffer, 10 mM PBS (0.15 M KCl). The amount of dissolved compound in each sample was then quantified, in duplicate, via HPLC using ultraviolet (UV) spectrometric detection.
Variable volumes of pure DMSO (0–100 μL) were added separately to small and defined (1 mg) quantities of each compound to obtain clear solutions. […] Afterward, 5% DMSO 10 mM PBS (0.15 M KCl) was added until the suspensions or precipitations were redissolved, to render clear solutions. As soon as solutions were obtained, they were used as mother solutions for the performance of 5–10 point calibration curves with serial buffer dilutions (1:1; v/v) 5% DMSO 10 mM PBS (0.15 M KCl). Calibration points were then measured via HPLC-UV.
The mobile phase consisted of a solution of acetonitrile (ACN) and 20 mM ammonium acetate buffer (AAB), pH 7, freshly prepared. A 10 μL volume of each sample (volume of injection) was injected at an isocratic 1 mL/min flow rate analyzed at 30 °C (oven temperature). Solubility determination of each compound required a specific HPLC method. Settings are collected in Table S11 (PROTACs) and Table S10 (building blocks).
Injections were performed in duplicate for each molecule’s calibration points. The retention time and area under the curve (AUC in absorbance units) were collected, and the average was calculated. The AUC average (y-axis) was plotted versus theoretical concentration (mg/mL; x-axis) to obtain a calibration curve for each molecule. Correlation equations and coefficients (R^2) were efficiently calculated for each compound (Table S12 for PROTACs and Table S10 for building blocks). Samples were then injected in duplicate, and the AUC averages and standard deviations were calculated. Finally, the absorbance averages were interpolated into the corresponding equations, extracting the final solubility values with their standard deviation, after dilution factor corrections.

The mark [1] stands for this setting: 25 °C, pH 7, aqueous buffer, thermodynamic from solid, Solubility average, thermodynamic, shake-flask, 1 h.
The mark [2] stands for this setting: pH 7, Exp.LogS, PROTAC pairs and building blocks.
[3] abbreviates: 25 °C, pH 7, aqueous buffer, thermodynamic from solid, Solubility log S, Table S-3.
The mark [4] stands for this setting: pH 7, aqueous buffer, thermodynamic from solid.
Setting [5] is: 25 °C, pH 7, aqueous buffer, thermodynamic from solid, Solubility, Table S-3.
Where [6] appears, read: 25 °C, pH 7, aqueous buffer, thermodynamic from solid, Exp.LogS, PROTAC pairs and building blocks.

Converted amounts (≈) assume the structure as drawn. Some results are limits rather than exact numbers.

The term solubility denotes the concentration that dissolves in the medium under given conditions. Higher therefore signals a readily soluble substance. For the molecule `COC(=O)C[C@@H]1N=C(c2ccc(Cl)cc2)c2c(sc(C(=O)NCCCCCNc3cccc4c3C(=O)N(C3CCC(=O)NC3=O)C4=O)c2C)-n2c(C)nnc21` (stereo partly shown) [ZXH-3-26], the “Classification (GSK guidelines)” value is reported as “Low (< 30 μM) (Low (< 30 μM))”. The same molecule registered a solubility at 1 h under setting [1] of 2.95 µM. This molecule gave a solubility at 1 h under setting [2] of 2.95 µM.

As a reminder, the solubility (thermodynamic) is the concentration in solution at equilibrium with solid. `Cc1ncsc1-c1ccc(CNC(=O)[C@@H]2C[C@H](O)CN2C(=O)[C@@H](NC(=O)C2(F)CC2)C(C)(C)C)c(OCCOc2ccc(CN3CCN(c4cc(-c5ccccc5O)nnc4N)CC3)cc2)c1` [CisACBI1]: the “Solubility (in words)” value is recorded as “below the quantification limit” and the “Classification (GSK guidelines)” value is “Low (< 30 μM) (Low (< 30 μM))”. For the same molecule, the solubility at 1 h under setting [1] is < 0.87 µM. Under setting [3], the solubility at 1 h was < 0.871 µM. In addition, under setting [4], the thermodynamic solubility at 1 h was < 0.817 µg/mL.

`Cc1sc2c(c1C)C(c1ccc(Cl)cc1)=N[C@@H](CC(=O)Nc1ccc(OCCOCCOCCOCCNc3cccc4c3C(=O)N(C3CCC(=O)NC3=O)C4=O)cc1)c1nnc(C)n1-2` (stereo partly shown) [ARV-825]: the “Solubility (in words)” value is given as “below the quantification limit” and the “Classification (GSK guidelines)” value was “Low (< 30 μM) (Low (< 30 μM))”. The solubility at 1 h under setting [1] is < 0.32 µM. For the same molecule, the solubility (thermodynamic) at 1 h under setting [4] was < 0.29 µg/mL.

As to `O=C1CCC(N2Cc3c(C#CCCCNC(=O)c4ccc(NC(=O)[C@@H]5NC6(CCCCC6)[C@@]6(C(=O)Nc7cc(Cl)ccc76)[C@H]5c5cccc(Cl)c5F)cc4)cccc3C2=O)C(=O)N1` (stereo partly shown) [MD-224], the “Solubility (in words)” value is given as “below the quantification limit” and the “Classification (GSK guidelines)” value is “Low (< 30 μM) (Low (< 30 μM))”. Besides, the solubility at 1 h under setting [1] is < 0.23 µM. For the same molecule, the solubility at 1 h under setting [3] was < 0.229 µM. In addition, the thermodynamic solubility at 1 h under setting [4] is < 0.289 µg/mL.

Regarding `Cc1sc2c(c1C)C(c1ccc(Cl)cc1)=N[C@@H](CC(=O)NCCNc1cccc3c1C(=O)N(C1CCC(=O)NC1=O)C3=O)c1nnc(C)n1-2` (stereo partly shown) [dBET57], the “Classification (GSK guidelines)” value is on record as “Intermediate (30–200 μM) (Intermediate (30–200 μM))”. Moreover, under setting [1], the concentration in solution (solubility at 1 h) was 30.2 µM. Under setting [5], this molecule yielded a solubility at 1 h of 20 µg/mL. Moreover, the concentration in solution under setting [2] (solubility at 1 h) was 30.2 µM.

Consider `COc1cc2ncnc(Nc3ccc(F)c(Cl)c3)c2cc1OCCCCCOCCOCCC(=O)N[C@H](C(=O)N1C[C@H](O)C[C@H]1C(=O)NCc1ccc(-c2scnc2C)cc1)C(C)(C)C` [Gefitinib-based PROTAC 3], for which the “Classification (GSK guidelines)” value is listed as “Low (< 30 μM) (Low (< 30 μM))”. Moreover, the concentration in solution under setting [1] (solubility at 1 h) came to 1.23 µM. The molecule further had a solubility at 1 h under setting [3] of 1.23 µM. The molecule further came in with a solubility (thermodynamic) at 1 h under setting [4] of 1.14 µg/mL (≈ 1.22 µM).

For `Cc1ncsc1-c1ccc(CNC(=O)[C@@H]2C[C@@H](O)CN2C(=O)[C@@H](NC(=O)CCCCOCCCCCOCCCCCCNc2cccc3c2C(=O)N(C2CCC(=O)NC2=O)C3=O)C(C)(C)C)cc1` (stereo partly shown) [CRBN-6-5-5-VHL], the “Classification (GSK guidelines)” value was “Low (< 30 μM) (Low (< 30 μM))”. This molecule came in with a solubility at 1 h under setting [1] of 1.23 µM. Under setting [3], this molecule showed a solubility at 1 h of 1.23 µM. The molecule further had a solubility (thermodynamic) at 1 h under setting [4] of 1.19 µg/mL (≈ 1.22 µM).

Consider `Cc1ncsc1-c1ccc(CNC(=O)[C@@H]2C[C@H](O)CN2C(=O)[C@@H](NC(=O)COCCOCCOCCNC(=O)C[C@@H]2N=C(c3ccc(Cl)cc3)c3c(sc(C)c3C)-n3c(C)nnc32)C(C)(C)C)cc1` [CisMZ1], for which the “Classification (GSK guidelines)” value was “Intermediate (30–200 μM) (Intermediate (30–200 μM))”. For the same molecule, the concentration in solution under setting [1] (solubility at 1 h) was 50.1 µM. The molecule also showed a solubility at 1 h under setting [3] of 50.1 µM. The solubility at 1 h under setting [5] was determined as 50 µg/mL.

For `COc1cc(C(=O)NCCOCCOCCOCC(=O)N[C@H](C(=O)N2C[C@H](O)C[C@H]2C(=O)NCc2ccc(-c3scnc3C)cc2)C(C)(C)C)ccc1Nc1ncc(C(F)(F)F)c(Oc2cccc3c2C(=O)CC3)n1` [BI-0319], the “Classification (GSK guidelines)” value is “Low (< 30 μM) (Low (< 30 μM))”. Besides, under setting [6], the concentration in solution (solubility at 1 h) was 2.63 µM. In addition, the solubility at 1 h under setting [1] was 2.63 µM. The thermodynamic solubility at 1 h under setting [4] turned out to be 2.78 µg/mL (≈ 2.62 µM).

On to `O=C(CCCCC(=O)NCCN1C(=O)c2cccc3c(Sc4ccc(Br)cc4)ccc(c23)C1=O)NCCCCCCNc1cccc2c1C(=O)N(C1CCC(=O)NC1=O)C2=O` (stereo not shown) [Mcl1 degrader-1], for which the “Solubility (in words)” value is reported as “below the quantification limit” and the “Classification (GSK guidelines)” value is recorded as “Low (< 30 μM) (Low (< 30 μM))”. For the same molecule, under setting [1], the solubility at 1 h was < 0.87 µM. Moreover, the solubility at 1 h under setting [3] is < 0.871 µM. Further, the thermodynamic solubility at 1 h under setting [4] was < 0.793 µg/mL.

Consider `CC(=O)N1c2ccc(-c3ccc(C(=O)NCCOCCOCCOCC(=O)N[C@H](C(=O)N4C[C@H](O)C[C@H]4C(=O)NCc4ccc(-c5scnc5C)cc4)C(C)(C)C)cc3)cc2[C@H](Nc2ccc(Cl)cc2)C[C@@H]1C` [MZP-54], for which the “Classification (GSK guidelines)” value was “Low (< 30 μM) (Low (< 30 μM))”. The amount in solution under setting [6] (solubility at 1 h) came to 0.513 µM. In addition, under setting [1], the concentration in solution (solubility at 1 h) was 0.51 µM. Also, under setting [4], the solubility (thermodynamic) at 1 h was determined as 0.528 µg/mL (≈ 0.509 µM).

On to `CC(C)(C)c1cnc(CSc2cnc(NC(=O)C3CCN(CC(=O)NCCOCCOCCOCCNc4cccc5c4C(=O)N(C4CCC(=O)NC4=O)C5=O)CC3)s2)o1` (stereo not shown) [THAL-SNS-032], for which the “Classification (GSK guidelines)” value is given as “Intermediate (30–200 μM) (Intermediate (30–200 μM))”. For the same molecule, under setting [1], the concentration in solution (solubility at 1 h) was 52.5 µM. For the same molecule, the concentration in solution under setting [3] (solubility at 1 h) was 52.5 µM. In addition, the concentration in solution under setting [5] (solubility at 1 h) was 50 µg/mL.

Take `Cc1ncsc1-c1ccc(CNC(=O)[C@@H]2C[C@@H](O)CN2C(=O)[C@@H](NC(=O)C2(F)CC2)C(C)(C)C)c(OCCOc2ccc(CN3CCN(c4cc(-c5ccccc5O)nnc4N)CC3)cc2)c1` [ACBI1]: the “Solubility (in words)” value is listed as “below the quantification limit” and the “Classification (GSK guidelines)” value is “Low (< 30 μM) (Low (< 30 μM))”. The solubility at 1 h under setting [1] was < 0.72 µM. The solubility (thermodynamic) at 1 h under setting [4] is < 0.68 µg/mL.

Consider `CC(=O)c1c(C)c2cnc(Nc3ccc(N4CCN(CCOCCOCCOCCNC(=O)COc5cccc6c5C(=O)N(C5CCC(=O)NC5=O)C6=O)CC4)cn3)nc2n(C2CCCC2)c1=O` (stereo not shown) [BSJ-03-123], for which the “Classification (GSK guidelines)” value is given as “Low (< 30 μM) (Low (< 30 μM))”. The same molecule gave a solubility at 1 h under setting [1] of 17.8 µM. Moreover, the concentration in solution under setting [3] (solubility at 1 h) was 17.8 µM. Also, under setting [5], the solubility at 1 h was determined as 20 µg/mL.

Regarding `COc1cc(C(=O)NCCOCCOCCOCCC(=O)Nc2cccc3c2C(=O)N(C2CCC(=O)NC2=O)C3=O)ccc1Nc1ncc(C(F)(F)F)c(Oc2cccc3c2C(=O)CC3)n1` (stereo not shown) [BI-3663], the “Classification (GSK guidelines)” value is listed as “Low (< 30 μM) (Low (< 30 μM))”. Under setting [6], this molecule gave a solubility at 1 h of 6.92 µM. Under setting [1], this molecule yielded a solubility at 1 h of 6.92 µM. This molecule registered a solubility at 1 h under setting [5] of 10 µg/mL.

In the case of `COc1cc(-c2cn(C)c(=O)c3cnccc23)cc(OC)c1CN1CCN(CCCCCOc2cc(-c3scnc3C)ccc2CNC(=O)[C@@H]2C[C@@H](O)CN2C(=O)[C@@H](NC(=O)C2(F)CC2)C(C)(C)C)CC1` [VZ185], the “Classification (GSK guidelines)” value was “Intermediate (30–200 μM) (Intermediate (30–200 μM))”. Under setting [1], this molecule had a solubility at 1 h of 50.1 µM. The same molecule gave a solubility at 1 h under setting [3] of 50.1 µM. The molecule also showed a solubility at 1 h under setting [5] of 50 µg/mL.

Regarding `COc1cc(C(=O)NCCOCCOCCOCC(=O)N[C@H](C(=O)N2C[C@@H](O)C[C@H]2C(=O)NCc2ccc(-c3scnc3C)cc2)C(C)(C)C)ccc1Nc1ncc(C(F)(F)F)c(Oc2cccc3c2C(=O)CC3)n1` [BI-4206], the “Classification (GSK guidelines)” value is listed as “Low (< 30 μM) (Low (< 30 μM))”. This molecule also gave a solubility at 1 h under setting [6] of 0.575 µM. For the same molecule, the solubility at 1 h under setting [1] is 0.58 µM. The thermodynamic solubility at 1 h under setting [4] worked out at 0.606 µg/mL (≈ 0.571 µM).
